The results in this text go back to ChEMBL document CHEMBL1201862, “PubChem BioAssay data set” (2004).

Some test systems named below: HL-60; U-251; A549; ACHN; HOP-62; NCI-H522; TK-10; HCT-15; OVCAR-5; HCT-116; NCI-H226; LOX IMVI; EKVX; SN12C; SK-OV-3; HT-29; DU-145; MCF7.
What all share (test): inhibition of tumour cell growth, NCI panel, 48 h

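48-hour exposure; five concentrations; linearly interpolated endpoints. The concentration for 50% growth inhibition is given as GI50.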 Activity calls are given as the source filed them. No stated cut-off is given here; in the data, active = GI50 up to about 1.1 µM and inactive = higher.

On to `O=C(O)COc1ccc(C(=O)/C(SS/C(C(=O)c2ccc(OCC(=O)O)c(Cl)c2Cl)=C2\C=C(c3ccc(Cl)cc3)SS2)=C2/C=C(c3ccc(Cl)cc3)SS2)c(Cl)c1Cl`, for which the GI50 in the assay on HL-60 is 0.252 µM (active); in the assay with U-251, 4.2 µM (inactive); with A549, 21.4 µM (inactive); in the assay on ACHN, 8.39 µM (inactive); with HOP-62, 39.8 µM (inactive); with NCI-H522, 2.18 µM (inactive). Also, the GI50 is 24.7 µM (inactive) in the assay with TK-10; 5.78 µM in the assay on HCT-15; 30.1 µM (inactive) in the assay on OVCAR-5; 9.08 µM (inactive) with HCT-116; 5.66 µM (inactive) in the assay with NCI-H226; 3.93 µM (inactive) with LOX IMVI. Besides, the GI50 was 57.1 µM (inactive) in the assay with EKVX, 0.319 µM (active) with SN12C, 56.1 µM (inactive) with SK-OV-3 and 34.5 µM (inactive) with HT-29.
`Cc1ccc(NC(=O)C2C3C=CC(O3)C2C(=O)O)cc1` (configuration not stated): the GI50 was 61.5 µM (inactive) with HL-60; > 100 µM (inactive) in the assay with U-251; > 100 µM (inactive) in the assay with A549; > 100 µM (inactive) in the assay with ACHN; > 100 µM (inactive) in the assay on HOP-62; > 100 µM (inactive) in the assay with NCI-H522. Moreover, the GI50 in the assay on TK-10 is > 100 µM (inactive); with HCT-15, over 100 µM; in the assay with OVCAR-5 it was > 100 µM (inactive); in the assay with HCT-116, > 100 µM (inactive); in the assay with NCI-H226, > 100 µM (inactive); in the assay with LOX IMVI, 23.7 µM (inactive). Moreover, the GI50 in the assay on EKVX is > 100 µM (inactive); in the assay with SN12C it was > 100 µM (inactive); in the assay on SK-OV-3, > 100 µM (inactive); with HT-29, 19.8 µM (inactive).
On to `CC(C)C(=O)Nc1nc2[nH]cnc2c(=O)[nH]1`, for which the GI50 in the assay with HL-60, in the assay on U-251, in the assay on A549, with ACHN, in the assay on HOP-62 and with NCI-H522 was > 100 µM (inactive) throughout. The GI50 in the assay on TK-10 was > 100 µM (inactive); in the assay with HCT-15 it was over 100 µM; in the assay on OVCAR-5, > 100 µM (inactive); in the assay with HCT-116, > 100 µM (inactive); in the assay with NCI-H226, > 100 µM (inactive); in the assay on LOX IMVI, > 100 µM (inactive). Further, the GI50 with EKVX, in the assay with SN12C, in the assay on SK-OV-3 and with HT-29 was > 100 µM (inactive) in each case.
For `Nc1nc2ncn(CCO)c2c(=S)[nH]1`, the GI50 in the assay with HL-60, in the assay on U-251, in the assay with A549, in the assay on ACHN, in the assay on HOP-62 and in the assay with NCI-H522 was > 100 µM (inactive) each time. Further, the GI50 in the assay on TK-10 was > 100 µM (inactive); with HCT-15, over 100 µM; in the assay with OVCAR-5, > 100 µM (inactive); with HCT-116, > 100 µM (inactive); in the assay with NCI-H226 it was > 100 µM (inactive); in the assay with LOX IMVI it was > 100 µM (inactive). For the same compound, the GI50 with EKVX, in the assay with SN12C, with SK-OV-3 and with HT-29 was > 100 µM (inactive) in each case.
In the case of `C=CCOCCCCC(C(C)=O)C(=O)OC` (configuration not stated), the GI50 in the assay with HL-60, in the assay with U-251, in the assay with A549, in the assay on ACHN, in the assay on NCI-H522 and in the assay on TK-10 was > 100 µM (inactive) throughout. Also, the GI50 in the assay on HCT-15 was over 100 µM; in the assay on OVCAR-5, > 100 µM (inactive); in the assay on HCT-116, > 100 µM (inactive); in the assay on NCI-H226, > 100 µM (inactive); with LOX IMVI it was > 100 µM (inactive); with SN12C, > 100 µM (inactive). In addition, the GI50 in the assay with SK-OV-3, with HT-29 and in the assay with DU-145 was > 100 µM (inactive) in each case.
On to `C=C(C)[C@H](O)C(O)CC(C)[C@@H]1CCC23CC12CCC1[C@@]2(C)CCC(OC(C)=O)C(C)(C)C2CC(OC2OC(COC(C)=O)C(O)C(O)C2O)[C@]13C` (some centres not stated), for which the GI50 with HL-60 was 1.62 µM (inactive); in the assay with U-251, 4.74 µM (inactive); with A549 it was 6.21 µM (inactive); in the assay on ACHN it was 6.61 µM (inactive); in the assay on HOP-62, 6.92 µM (inactive); with NCI-H522, 4.35 µM (inactive). Also, the GI50 is 6.55 µM (inactive) with TK-10; 4.86 µM with HCT-15; 7.69 µM (inactive) in the assay on OVCAR-5; 3.8 µM (inactive) in the assay with HCT-116; 5.45 µM (inactive) in the assay on NCI-H226; 4.86 µM (inactive) with LOX IMVI. Further, the GI50 is 6.67 µM (inactive) with EKVX, 6.75 µM (inactive) with SN12C, 8 µM (inactive) in the assay with SK-OV-3 and 3.06 µM (inactive) with HT-29.
Take `O=C1c2cccc3cc([N+](=O)[O-])cc(c23)C(=O)N1NC1=NCCN1`: the GI50 in the assay with HL-60, with U-251, in the assay with A549, in the assay on ACHN, in the assay on HOP-62 and in the assay on NCI-H522 was > 100 µM (inactive) each time. For the same compound, the GI50 in the assay on TK-10 is > 100 µM (inactive); with HCT-15 it was over 100 µM; in the assay with OVCAR-5, > 100 µM (inactive); in the assay on HCT-116, > 100 µM (inactive); with NCI-H226, > 100 µM (inactive); with LOX IMVI, > 100 µM (inactive). For the same compound, the GI50 in the assay with EKVX, in the assay with SN12C, in the assay on SK-OV-3 and in the assay with HT-29 was > 100 µM (inactive) each time.
Turning to `COC(=O)c1cc2c(nc1C)-c1ccccc1OS2(=O)=O`, the GI50 in the assay with HL-60 was > 100 µM (inactive); in the assay on U-251, 70.1 µM (inactive); with A549, > 100 µM (inactive); in the assay on ACHN it was > 100 µM (inactive); in the assay on HOP-62 it was 27.5 µM (inactive); in the assay on NCI-H522, > 100 µM (inactive). Further, the GI50 in the assay on TK-10 was 83.2 µM (inactive); with HCT-15, over 100 µM; in the assay with OVCAR-5, > 100 µM (inactive); in the assay on HCT-116, > 100 µM (inactive); in the assay on NCI-H226, > 100 µM (inactive); in the assay on LOX IMVI, > 100 µM (inactive). Besides, the GI50 in the assay with EKVX, in the assay with SN12C, in the assay on SK-OV-3 and in the assay with HT-29 was > 100 µM (inactive) in each case.
As to `CC(C)(C)c1cc(-c2c3nc(c(-c4cc(C(C)(C)C)cc(C(C)(C)C)c4)c4ccc([nH]4)c(-c4cc(C(C)(C)C)cc(C(C)(C)C)c4)c4nc(c(-c5cc(C(C)(C)C)cc(C(C)(C)C)c5)c5ccc2[nH]5)C=C4)C=C3)cc(C(C)(C)C)c1`, the GI50 in the assay on HL-60, in the assay on U-251, in the assay on A549, in the assay on ACHN, in the assay on HOP-62 and in the assay with NCI-H522 was > 100 µM (inactive) each time. Besides, the GI50 is > 100 µM (inactive) in the assay with TK-10; over 100 µM in the assay with HCT-15; > 100 µM (inactive) in the assay with OVCAR-5; > 100 µM (inactive) in the assay with HCT-116; > 100 µM (inactive) with NCI-H226; > 100 µM (inactive) in the assay on LOX IMVI. In addition, the GI50 with EKVX, in the assay with SN12C, in the assay with SK-OV-3 and in the assay with HT-29 was > 100 µM (inactive) throughout.
Regarding `ON=C1CCC(c2ccccc2)CC1` (configuration not stated), the GI50 with HL-60, in the assay on U-251, in the assay with A549, in the assay with ACHN, in the assay on HOP-62 and with NCI-H522 was > 100 µM (inactive) throughout. The GI50 is > 100 µM (inactive) in the assay on TK-10; over 100 µM with HCT-15; > 100 µM (inactive) in the assay on OVCAR-5; > 100 µM (inactive) with HCT-116; > 100 µM (inactive) with NCI-H226; > 100 µM (inactive) with LOX IMVI. For the same compound, the GI50 in the assay on EKVX, in the assay with SN12C, in the assay on SK-OV-3 and in the assay with HT-29 was > 100 µM (inactive) in each case.
Regarding `N=C(NC(=S)N1CCCCC1)N1CCCCC1`, the GI50 with HL-60, in the assay on U-251, with A549, in the assay with ACHN, with HOP-62 and with NCI-H522 was > 100 µM (inactive) each time. The GI50 was > 100 µM (inactive) in the assay on TK-10; over 100 µM in the assay on HCT-15; > 100 µM (inactive) with OVCAR-5; > 100 µM (inactive) in the assay with HCT-116; 5.71 µM (inactive) in the assay with NCI-H226; > 100 µM (inactive) in the assay with LOX IMVI. Further, the GI50 with EKVX, with SN12C, in the assay with SK-OV-3 and with HT-29 was > 100 µM (inactive) throughout.
In the case of `c1ccc(CCN2CCc3[nH]c4ccccc4c3C2)cc1`, the GI50 with HL-60 is 19 µM (inactive); in the assay on U-251, 18 µM (inactive); with A549, 24.6 µM (inactive); with ACHN it was 28.1 µM (inactive); in the assay on HOP-62, 19.5 µM (inactive); with TK-10, 24.3 µM (inactive). Also, the GI50 is 23.4 µM with HCT-15; 20 µM (inactive) in the assay with OVCAR-5; 14.5 µM (inactive) in the assay on HCT-116; 29.8 µM (inactive) in the assay on NCI-H226; 19.5 µM (inactive) in the assay with LOX IMVI; 18.8 µM (inactive) in the assay with MCF7. Moreover, the GI50 in the assay with EKVX is 33.4 µM (inactive); in the assay with SN12C, 27.9 µM (inactive); in the assay on SK-OV-3, 35.8 µM (inactive); with HT-29 it was 14.1 µM (inactive); with DU-145, > 100 µM (inactive).
